One substance from US8710059B2, “N-phenyl-(homo)piperazinyl-benzenesulfonyl or benzenesulfonamide compounds suitable for treating disorders that respond to the modulation of the serotonin 5-HT6 receptor” (Abbott Laboratories, priority 2010, dated 2014) can be followed below.

For the assay, the target named is T1, dopamine D2 receptor (Homo sapiens, UniProt P14416).
T1 construct: expressed in transfected cells
In words: Dopamine D2 receptor binding assay (displacement of [125I]-iodospiperone). Particulars: saturation binding experiments, HEK293 D2 membranes. As to the method:
1. […] The pellets were stored at −80° C. until use. […] (Beckman Ultrazentrifuge XL 80). […] 2. Receptor Binding Experiments
b) Dopamine D2 Receptor Binding Assay
Non-specific binding was defined with 1 μM haloperidol.

T1 sequence (P14416 whole entry): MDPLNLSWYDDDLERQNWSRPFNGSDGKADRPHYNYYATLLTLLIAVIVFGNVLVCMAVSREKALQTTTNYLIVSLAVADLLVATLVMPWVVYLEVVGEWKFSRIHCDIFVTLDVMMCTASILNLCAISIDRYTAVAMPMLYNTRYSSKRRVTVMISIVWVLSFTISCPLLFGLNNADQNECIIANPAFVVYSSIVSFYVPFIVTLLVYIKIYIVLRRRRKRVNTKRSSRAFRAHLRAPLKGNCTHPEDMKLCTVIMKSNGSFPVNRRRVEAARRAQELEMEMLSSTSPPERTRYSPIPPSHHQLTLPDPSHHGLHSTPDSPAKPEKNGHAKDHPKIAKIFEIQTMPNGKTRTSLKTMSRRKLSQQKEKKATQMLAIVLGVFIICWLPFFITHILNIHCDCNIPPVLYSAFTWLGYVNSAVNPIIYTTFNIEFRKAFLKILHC

For the substance iodospiperone [[^125I]-iodospiperone], the Kd (commonly the equilibrium constant for the complex coming apart) is 0.22 nM.
